The text below walks through data of patent US10064845B2, “Compositions and methods of treating muscular dystrophy with thromboxane-A2 receptor antagonists” (Cumberland Pharmaceuticals, Inc., priority 2016, dated 2018).

The subject of assay [1] is pressure-overload model of pulmonary arterial hypertension. Particulars: cited from earlier work.
Assay [2] relates to δ-sarcoglycan knockout (dSG KO) mouse model of limb-girdle muscular dystrophy. Description: plasma cardiac troponin I in dSG KO mice. The assay is classed as in vivo. Particulars: given in drinking water. The source says: (§1) Applicants explored the possibility that TPr activity may contribute to pathology in muscular dystrophy. In preliminary studies, the effects of blocking TPr activity in a δ-sarcoglycan knockout (dSG KO) mouse model of limb-girdle muscular dystrophy (LGMD). […] The inhibition of LV epicardial fibrosis may have particular applicability to DMD patients, where cardiac fibrosis typically begins in the sub-epicardium of the left ventricular (LV) free wall and progresses to include the remaining LV free wall and septum. […] Therefore, it is believed that TPr activity contributes to pathology in muscular dystrophy.
Example 4 utilized West/Carrier Muscular Dystrophy Animal Models (Delta-sarcoglycan knock-out mice (sgcd−/−)). Mice devoid of DSG develop cardiomyopathy and MD with signs of progressive disease such as necrosis, muscular regeneration, inflammation and fibrosis within the first 3 months of life. Mice that are homozygous for the targeted mutation are viable, fertile and normal in size. No gene product (protein) is immunodetected in skeletal muscle microsomal preparations. […] Myofiber membranes have permeability defects as assessed by Evans blue dye uptake into myofiber cytoplasm. […]
The term “cTNI” means plasma cardiac troponin I. The term “KO” means knockout. […] Plasma cardiac troponin I (cTNI) is highly specific and sensitive for myocardial tissue and can be measured rapidly. […]

Assay [3] has as its system dSG KO mice. Description: spontaneous exercise (voluntary wheel running) in dSG KO mice. It counts as in vivo, mouse. The following applies: 6 month old dSG KO males; wheel access for 10 days after 4.5M of treatment; FIG. 5. The source says: (§2) Example 4 utilized West/Carrier Muscular Dystrophy Animal Models (Delta-sarcoglycan knock-out mice (sgcd−/−)). Mice devoid of DSG develop cardiomyopathy and MD with signs of progressive disease such as necrosis, muscular regeneration, inflammation and fibrosis within the first 3 months of life. Mice that are homozygous for the targeted mutation are viable, fertile and normal in size. No gene product (protein) is immunodetected in skeletal muscle microsomal preparations. At 8 weeks of age there is an onset of sudden mortality, with a 50% survival rate at 28 weeks. Elevated creatine kinase serum levels are indicative of striated muscle degeneration. […] At 12 weeks of age, cardiac muscle tissue also begins to show degeneration, inflammatory infiltration and perivascular fibrosis. Myofiber membranes have permeability defects as assessed by Evans blue dye uptake into myofiber cytoplasm. […] A major function of dystrophin is to strengthen the sarcolemma by cross-linking the ECM with the cytoskeleton. […] They work to connect sarcolemma to cytoplasmic actin cytoskeleton. Dysfunction produces membrane instability, elevated [Ca2+]I and disrupted NO signaling. γ- and δ-SG form a core necessary for delivery/retention of other SG to the membrane.
FIG. 5 provides spontaneous exercise date for 6 month old males. […]

For assay [4], the system named is δ-sarcoglycan knockout (dSG KO) mouse model of limb-girdle muscular dystrophy. Description: cardiac function (Echo, cardiac output) in dSG KO mice. It counts as in vivo.
Excerpt: as §1, §2
(§3) While the DSG KO (sgcd−/−) mice lack functional delta-sarcoglycan, the MD phenotype is milder than the human disease. […]

The test system of assay [5] is dSG KO mice. The experiment in a line: survival of dSG KO mice. It counts as in vivo, mouse. The source says: Applicants explored the possibility that TPr activity may contribute to pathology in muscular dystrophy. In preliminary studies, the effects of blocking TPr activity in a δ-sarcoglycan knockout (dSG KO) mouse model of limb-girdle muscular dystrophy (LGMD). […] The inhibition of LV epicardial fibrosis may have particular applicability to DMD patients, where cardiac fibrosis typically begins in the sub-epicardium of the left ventricular (LV) free wall and progresses to include the remaining LV free wall and septum. […] Therefore, it is believed that TPr activity contributes to pathology in muscular dystrophy. Example 4 utilized West/Carrier Muscular Dystrophy Animal Models (Delta-sarcoglycan knock-out mice (sgcd−/−)). Mice devoid of DSG develop cardiomyopathy and MD with signs of progressive disease such as necrosis, muscular regeneration, inflammation and fibrosis within the first 3 months of life. Mice that are homozygous for the targeted mutation are viable, fertile and normal in size. No gene product (protein) is immunodetected in skeletal muscle microsomal preparations. At 8 weeks of age there is an onset of sudden mortality, with a 50% survival rate at 28 weeks. Elevated creatine kinase serum levels are indicative of striated muscle degeneration. […] Myofiber membranes have permeability defects as assessed by Evans blue dye uptake into myofiber cytoplasm. […]

The test system of assay [6] is utrophin/dystrophin double knockout (DKO) mice, a model of severe DMD. Description: survival of utrophin/dystrophin DKO mice. The assay is classed as in vivo, mouse.
Excerpt: as §1
dSG KO mice, chosen for their cardiac phenotype, are a model of LGMD, but DMD which occurs in approximately 1:3500 male births (1), is far more common a disease than LGMD. The mdx mouse model of DMD poorly replicates the shortened life expectancy, cardiac fibrosis, and cardiomyopathy seen in DMD patients. The utrophin/dystrophin DKO model had significant mortality by 10 weeks, although treatment with the TPr antagonist ifetroban led to 100% survival to this predetermined timepoint. Although TPr antagonism may prevent spontaneous death in DMD, due to severe kyphosis and frailty we were not able to obtain much useful cardiac data with the DKO model of DMD.
as §3

Assay [7] has as its system dSG KO mice. Description: intestinal histology (H&E) in dSG KO mice. It counts as in vivo, mouse. Particulars: dSG KO mice vs vehicle-treated dSG KO mice; FIG. 13.
Excerpt: as §2, with “membrane. […]” for “membrane.”

The test system of assay [8] is δ-sarcoglycan knockout (dSG KO) mouse model of limb-girdle muscular dystrophy. The experiment in a line: cardiac histology (Masson's trichrome) in dSG KO mice. The assay is classed as in vivo.
Excerpt: as §1, §2
FIGS. 9A (dSGKO-vehicle) and 9B (DsGKO-ifetroban) show cardiac histology in dSG KO males. Less fibrosis seen in ifetroban treated RV. Shown is Masson's trichrome at 4× for gross histology. […]

The test system of assay [9] is dSG KO mice. The experiment in a line: wire hang in dSG mice. The assay is classed as in vivo, mouse.
Excerpt: as §2
Veh and ife-treated groups were NS tested against each other. N in parentheses. “ife”=ifetroban.
FIG. 8 depicts wire hang time for mice tested.

Assay [10] concerns utrophin/dystrophin double knockout (DKO) mice. Description: wire hang in DKO males. The assay is classed as in vivo, mouse. Particulars: DKO males at 10 weeks; vs vehicle; FIG. 15. From the text:
While the DSG KO (sgcd−/−) mice lack functional delta-sarcoglycan, the MD phenotype is milder than the human disease. Since utrophin, a dystrophin-related protein, is able to compensate for the loss of dystrophin, loss of utrophin and dystrophin (DKO) results in a more severe phenotype. […] The mice are difficult to generate and care for, and often die prematurely. Ifetroban treatment was started at 3 weeks upon weaning.
FIG. 1 are photos of a vehicle-treated compared with an ifetroban-treated DKO mouse. FIG. 1A is a photograph of a vehicle-treated DKO Mouse at 10 weeks. FIG. 1B is a photograph of an ifetroban-treated DKO mouse at 10 weeks. The ability to wrap the tail around the wire is dependent on muscle function. A reason the DKO mice are really hard to evaluate in the wire hang is that they have such severe scoliosis that their hind paws are very close to their front paws, so raising their hind paws to get a 4-limbed grip is not difficult despite their affliction.
FIG. 15 are graphs showing wire hang in DKO males at 10 weeks (ifetroban-treated (“ife”) versus vehicle).

Where [11] appears, read: dSG KO mice, given in drinking water, preliminary studies.

For the compound `O=C(O)/C=C/c1ccc(Cn2ccnc2)cc1` [ozagrel], in assay [1], the cardiac function entry is “no effect” and the right ventricular fibrosis result is listed as “no effect”.

As to `CC(=O)Oc1ccccc1C(=O)O` [aspirin], in assay [1], the cardiac function result was “no effect” and the right ventricular fibrosis entry was “no effect”.

Consider `CCCCCNC(=O)c1coc([C@H]2[C@@H](Cc3ccccc3CCC(=O)O)[C@@H]3CC[C@H]2O3)n1` [ifetroban, [1S-(1α,2α,3α,4α)]-2-[[3-[4-[(Pentylamino)carbonyl]-2-oxazolyl]-7-oxabicyclo[2.2.1]hept-2-yl]methyl]-benzenepropanoic acid], for which the “plasma cardiac troponin I levels” value in [2] is listed as “normalizing elevated plasma cardiac troponin I levels”. For the same compound, in assay [1], the cardiac function result is recorded as “improves cardiac function” and the right ventricular fibrosis result is “dramatically decreases right ventricular fibrosis”. In the assay with dSG KO mice [3], the “spontaneous exercise (voluntary wheel running): skeletal function deficit” value is “seen to a less extent”. For the same compound, the “3 month Echo data: cardiac dysfunction” value in assay [4] (dSG KO males at 3 months, FIG. 3) was “prevents cardiac dysfunction”. For the same compound, the “decline in cardiac function” value in assay [4] (setting [11]) is “prevents a decline in cardiac function”. Further, the cardiac output entry in assay [4] (male dSG KO mice at 3 months, FIG. 4, compared to vehicle) is “improved similar to WT levels”. Also, the survival result in the assay on dSG KO mice [5] is on record as “significantly improved survival”. Moreover, the 10-week survival in assay [6] (DKO mice, treatment started at 3 weeks upon weaning) came out at 100%. In addition, the survival time in assay [6] (all DKO mice, FIG. 17) is > 70 days. Moreover, the “fibrosis in intestinal tissue” value in the assay on dSG KO mice [7] was “less fibrosis”. For the same compound, the “cardiac histology: fibrosis in RV” value in assay [8] (dSG KO males, Masson's trichrome 4× (FIG. 9) or 2× (FIG. 10)) is listed as “less fibrosis”. In addition, the “cardiac histology: fibrosis in left and right ventricle” value in assay [8] (dSG KO males, Masson's trichrome, 10×, FIG. 11) was “Less fibrosis”. The “formation of cardiac fibrosis” value in assay [8] (setting [11]) was “limits the formation of cardiac fibrosis”. The wire hang time entry in the assay on dSG KO mice [9] (dSG mice at 6 months, FIG. 6) is listed as “improved wire hang time”. For the same compound, in the assay on dSG KO mice [9] (male mice at 6 months, FIG. 8), the “wire hang time (longest time)” value was “difficult to measure any difference”. The “average wire hang time” value in assay [10] was “significantly longer average hang times”.
